Assay [1] deals with T1, Retinoic acid receptor beta (Homo sapiens, UniProt P10826).
T1 sequence (P10826 whole entry): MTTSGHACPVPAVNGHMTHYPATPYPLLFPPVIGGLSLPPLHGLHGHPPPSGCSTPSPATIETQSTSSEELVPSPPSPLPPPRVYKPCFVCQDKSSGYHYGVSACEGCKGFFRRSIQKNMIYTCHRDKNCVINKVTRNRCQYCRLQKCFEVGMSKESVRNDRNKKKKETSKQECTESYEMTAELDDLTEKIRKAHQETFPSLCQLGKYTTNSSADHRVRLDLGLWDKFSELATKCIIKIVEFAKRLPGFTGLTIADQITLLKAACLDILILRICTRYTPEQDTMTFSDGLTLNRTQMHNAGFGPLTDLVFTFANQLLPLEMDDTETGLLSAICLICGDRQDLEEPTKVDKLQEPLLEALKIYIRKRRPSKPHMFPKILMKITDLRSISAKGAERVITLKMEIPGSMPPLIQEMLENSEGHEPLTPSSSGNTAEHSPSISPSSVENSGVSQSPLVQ
The experiment in a line: Inhibition of [3H]ATRA binding to baculovirus expressed Retinoic acid receptor RAR beta.

The target of assay [2] is T1, Retinoic acid receptor beta. As to the kind of experiment: Transcriptional activation in CV-1 cells expressing Retinoic acid receptor RAR beta. It is filed as cell-based.
Assay [3] has as its target T2, Retinoic acid receptor beta (Homo sapiens) (UniProt P10826).
T2 sequence (whole entry): T1 sequence (P10826 whole entry)
As to the kind of experiment: Relative efficacy for Retinoic acid receptor beta compared to maximal retinoic acid response.

Assay [4] addresses T3, Retinoic acid receptor gamma (Homo sapiens, UniProt P13631).
T3 sequence (P13631 whole entry): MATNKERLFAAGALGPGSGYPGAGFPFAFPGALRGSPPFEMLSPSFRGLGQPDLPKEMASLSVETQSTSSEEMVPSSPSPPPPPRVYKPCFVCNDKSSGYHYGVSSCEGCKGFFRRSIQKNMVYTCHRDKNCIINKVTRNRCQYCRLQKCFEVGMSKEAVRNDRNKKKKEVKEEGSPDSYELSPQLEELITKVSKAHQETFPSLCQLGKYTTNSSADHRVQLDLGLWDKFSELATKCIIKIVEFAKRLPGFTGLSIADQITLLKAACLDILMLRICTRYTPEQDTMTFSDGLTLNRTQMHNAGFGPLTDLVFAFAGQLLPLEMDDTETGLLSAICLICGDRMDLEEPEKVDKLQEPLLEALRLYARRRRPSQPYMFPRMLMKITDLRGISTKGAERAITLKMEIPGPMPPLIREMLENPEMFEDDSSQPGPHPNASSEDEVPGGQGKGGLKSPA
The experiment in a line: Inhibition of [3H]ATRA binding to baculovirus expressed Retinoic acid receptor RAR gamma.

Assay [5] addresses T4, Retinoic acid receptor alpha (Homo sapiens, UniProt P10276).
T4 sequence (P10276 whole entry): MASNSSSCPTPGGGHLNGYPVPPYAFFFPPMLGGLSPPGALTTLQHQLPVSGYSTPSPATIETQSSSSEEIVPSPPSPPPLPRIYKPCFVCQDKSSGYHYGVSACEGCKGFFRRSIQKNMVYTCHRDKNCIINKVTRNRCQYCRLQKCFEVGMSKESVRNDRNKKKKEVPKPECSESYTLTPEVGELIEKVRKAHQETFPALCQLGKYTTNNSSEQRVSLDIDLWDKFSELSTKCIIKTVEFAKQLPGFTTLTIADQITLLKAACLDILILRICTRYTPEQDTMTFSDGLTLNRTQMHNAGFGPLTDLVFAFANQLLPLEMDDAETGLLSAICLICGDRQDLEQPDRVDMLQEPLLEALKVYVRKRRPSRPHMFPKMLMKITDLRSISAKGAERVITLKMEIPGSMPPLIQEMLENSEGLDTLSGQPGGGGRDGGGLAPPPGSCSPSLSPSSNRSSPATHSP
The experiment in a line: Inhibition of [3H]ATRA binding to baculovirus expressed Retinoic acid receptor RAR alpha.

The structures appear in SMILES notation.

As a reminder, the Kd is a measure of binding affinity in units of concentration. A higher Kd goes with weaker binding. Broadly, the EC50 is the midpoint of the concentration-response curve. A higher EC50 goes with a need for much substance. Turning to `CC1(C)CC=C(c2cccs2)c2cc(C#Cc3ccc(C(=O)O)cc3)ccc21`, the values for the Kd in assay [1], in assay [4] and in assay [5] were 20 nM, 104 nM and 129 nM, respectively. This molecule returned a concentration giving a half-maximal response (EC50) in assay [2] of 25 nM. Further, the Eff in assay [3] turned out to be 32%.
As for `CC1(C)CC=C(c2cccs2)c2cc(C(=O)Nc3ccc(C(=O)O)cc3)ccc21`, the Kd was 996 nM in assay [1], above 10000 nM in assay [4] and 94 nM in assay [5]. This molecule also returned a concentration giving a half-maximal response (EC50) in assay [2] of 115 nM. Besides, the Eff in assay [3] was 61%.
Take `CC1(C)CC=C(c2cccs2)c2cc(C(=O)Oc3ccc(C(=O)O)cc3)ccc21`: the Kd in assay [1] is 189 nM; in assay [4], 1490 nM; in assay [5] it was 303 nM. This molecule yielded an EC50 in assay [2] of 26 nM. The molecule further returned an Eff in assay [3] of 47%.

(Values after ChEMBL document CHEMBL1129600, “Identification of retinoic acid receptor beta subtype specific agonists” (J Med Chem, 1996).)
